Laboratory results from publication PMC8550792, “Evolution of kinase polypharmacology across HSP90 drug discovery” (Cell Chemical Biology, 2021).

How the values were obtained:
Assay in all cases: biochemical
Format in all cases: biochemical
[1] = target: T1, 382 unique human kinases (Homo sapiens, UniProt Q8IWQ3); settings: kinase BRSK2, compound 10 uM; for remaining activity at 10 µM: read-out: % Enzyme Activity (relative to DMSO controls)
T1 construct: purchased Reaction Biology (HotSpot contract assay)
T1 sequence (Q8IWQ3 1-736): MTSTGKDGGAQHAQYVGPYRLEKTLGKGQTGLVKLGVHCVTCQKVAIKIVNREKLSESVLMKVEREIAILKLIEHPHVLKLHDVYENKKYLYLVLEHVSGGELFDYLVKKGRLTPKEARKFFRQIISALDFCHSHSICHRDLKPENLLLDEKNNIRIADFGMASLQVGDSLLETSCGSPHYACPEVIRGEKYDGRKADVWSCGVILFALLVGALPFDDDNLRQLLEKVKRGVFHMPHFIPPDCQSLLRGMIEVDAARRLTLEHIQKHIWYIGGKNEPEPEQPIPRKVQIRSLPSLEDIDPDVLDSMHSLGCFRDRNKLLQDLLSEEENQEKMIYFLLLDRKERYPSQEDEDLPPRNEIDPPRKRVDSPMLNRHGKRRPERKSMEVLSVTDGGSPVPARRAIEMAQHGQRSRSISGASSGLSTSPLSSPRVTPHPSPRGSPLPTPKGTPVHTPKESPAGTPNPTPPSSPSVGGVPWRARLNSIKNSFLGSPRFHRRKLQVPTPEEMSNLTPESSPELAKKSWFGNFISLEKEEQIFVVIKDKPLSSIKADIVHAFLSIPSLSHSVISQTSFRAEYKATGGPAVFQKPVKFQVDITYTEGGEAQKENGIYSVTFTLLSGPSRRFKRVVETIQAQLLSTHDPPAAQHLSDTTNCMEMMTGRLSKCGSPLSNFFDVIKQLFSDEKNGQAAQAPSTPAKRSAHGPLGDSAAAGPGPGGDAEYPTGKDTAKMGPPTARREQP

[2] = target: T2, 382 unique human kinases (Homo sapiens, UniProt Q9BXA6); settings: kinase SSTK/TSSK6, compound 10 uM; for remaining activity at 10 µM: read-out: % Enzyme Activity (relative to DMSO controls)
T2 construct: purchased Reaction Biology (HotSpot contract assay)
T2 sequence (Q9BXA6 whole entry): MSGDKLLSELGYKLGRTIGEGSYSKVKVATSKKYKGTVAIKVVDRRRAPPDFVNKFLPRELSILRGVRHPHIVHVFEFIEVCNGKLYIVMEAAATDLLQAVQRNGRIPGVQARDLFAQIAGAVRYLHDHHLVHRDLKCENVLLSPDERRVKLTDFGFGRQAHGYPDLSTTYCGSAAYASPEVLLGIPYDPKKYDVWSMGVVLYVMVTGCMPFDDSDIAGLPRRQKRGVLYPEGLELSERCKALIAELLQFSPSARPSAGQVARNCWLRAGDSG

[3] = target: T3, 382 unique human kinases (Homo sapiens, UniProt Q86Z02); settings: HIPK1, compound at 10 uM, duplicate values; for remaining activity at 10 µM: read-out: % Enzyme Activity (relative to DMSO controls)
T3 construct: purchased Reaction Biology (HotSpot contract assay)
T3 sequence (Q86Z02 whole entry): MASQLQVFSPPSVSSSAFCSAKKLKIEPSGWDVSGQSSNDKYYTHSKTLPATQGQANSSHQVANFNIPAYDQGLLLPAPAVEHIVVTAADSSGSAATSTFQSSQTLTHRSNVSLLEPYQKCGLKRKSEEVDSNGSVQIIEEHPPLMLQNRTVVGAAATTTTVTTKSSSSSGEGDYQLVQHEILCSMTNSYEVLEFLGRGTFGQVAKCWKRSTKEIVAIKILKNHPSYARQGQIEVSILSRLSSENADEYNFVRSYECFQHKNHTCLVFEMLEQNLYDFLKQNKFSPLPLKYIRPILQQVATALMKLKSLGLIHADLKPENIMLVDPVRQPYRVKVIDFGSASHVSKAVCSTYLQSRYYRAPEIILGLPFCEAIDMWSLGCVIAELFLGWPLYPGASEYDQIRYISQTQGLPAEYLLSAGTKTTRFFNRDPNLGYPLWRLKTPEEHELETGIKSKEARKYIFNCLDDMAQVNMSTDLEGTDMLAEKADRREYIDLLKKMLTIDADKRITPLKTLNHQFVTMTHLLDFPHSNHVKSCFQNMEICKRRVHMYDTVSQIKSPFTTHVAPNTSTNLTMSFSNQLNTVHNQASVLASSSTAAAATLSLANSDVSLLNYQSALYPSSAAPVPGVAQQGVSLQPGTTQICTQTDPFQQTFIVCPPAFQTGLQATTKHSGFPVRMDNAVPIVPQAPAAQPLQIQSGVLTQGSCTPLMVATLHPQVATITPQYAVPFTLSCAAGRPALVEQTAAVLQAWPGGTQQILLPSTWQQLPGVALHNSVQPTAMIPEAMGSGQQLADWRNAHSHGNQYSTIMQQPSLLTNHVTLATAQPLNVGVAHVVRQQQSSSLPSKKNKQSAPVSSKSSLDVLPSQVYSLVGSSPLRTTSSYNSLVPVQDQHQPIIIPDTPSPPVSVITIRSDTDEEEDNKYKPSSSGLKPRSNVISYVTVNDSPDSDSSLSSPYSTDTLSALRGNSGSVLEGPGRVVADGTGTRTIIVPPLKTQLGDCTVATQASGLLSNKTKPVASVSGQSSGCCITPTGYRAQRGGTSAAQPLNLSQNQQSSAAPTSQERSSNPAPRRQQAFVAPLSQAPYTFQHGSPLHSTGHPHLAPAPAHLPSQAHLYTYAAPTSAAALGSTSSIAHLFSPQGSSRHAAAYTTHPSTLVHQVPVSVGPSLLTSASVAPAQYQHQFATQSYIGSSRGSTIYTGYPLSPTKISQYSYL

[4] = target: T4, 382 unique human kinases (Homo sapiens, UniProt Q96NX5); settings: kinase CAMK1g, compound 10 uM; for remaining activity at 10 µM: read-out: % Enzyme Activity (relative to DMSO controls)
T4 construct: purchased Reaction Biology (HotSpot contract assay)
T4 sequence (Q96NX5 whole entry): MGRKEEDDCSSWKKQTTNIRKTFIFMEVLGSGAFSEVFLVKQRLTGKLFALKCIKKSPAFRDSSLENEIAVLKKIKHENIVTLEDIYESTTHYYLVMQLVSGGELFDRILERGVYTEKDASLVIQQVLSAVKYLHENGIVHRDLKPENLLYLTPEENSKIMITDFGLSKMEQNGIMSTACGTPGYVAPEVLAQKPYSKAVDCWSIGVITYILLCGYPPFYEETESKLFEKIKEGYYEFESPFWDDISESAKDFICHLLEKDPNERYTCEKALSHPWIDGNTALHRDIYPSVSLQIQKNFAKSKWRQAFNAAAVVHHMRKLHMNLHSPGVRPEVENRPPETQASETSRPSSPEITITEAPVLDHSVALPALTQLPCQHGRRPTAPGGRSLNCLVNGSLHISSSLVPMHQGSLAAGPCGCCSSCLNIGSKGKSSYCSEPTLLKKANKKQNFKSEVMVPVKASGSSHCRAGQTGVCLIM

[5] = target: T5, 382 unique human kinases (Homo sapiens, UniProt O15146); settings: MUSK, [ATP] 15 µM, compound 10 uM; for remaining activity at 10 µM: read-out: % Enzyme Activity (relative to DMSO controls)
T5 construct: purchased Reaction Biology (HotSpot contract assay)
T5 sequence (O15146 24-869): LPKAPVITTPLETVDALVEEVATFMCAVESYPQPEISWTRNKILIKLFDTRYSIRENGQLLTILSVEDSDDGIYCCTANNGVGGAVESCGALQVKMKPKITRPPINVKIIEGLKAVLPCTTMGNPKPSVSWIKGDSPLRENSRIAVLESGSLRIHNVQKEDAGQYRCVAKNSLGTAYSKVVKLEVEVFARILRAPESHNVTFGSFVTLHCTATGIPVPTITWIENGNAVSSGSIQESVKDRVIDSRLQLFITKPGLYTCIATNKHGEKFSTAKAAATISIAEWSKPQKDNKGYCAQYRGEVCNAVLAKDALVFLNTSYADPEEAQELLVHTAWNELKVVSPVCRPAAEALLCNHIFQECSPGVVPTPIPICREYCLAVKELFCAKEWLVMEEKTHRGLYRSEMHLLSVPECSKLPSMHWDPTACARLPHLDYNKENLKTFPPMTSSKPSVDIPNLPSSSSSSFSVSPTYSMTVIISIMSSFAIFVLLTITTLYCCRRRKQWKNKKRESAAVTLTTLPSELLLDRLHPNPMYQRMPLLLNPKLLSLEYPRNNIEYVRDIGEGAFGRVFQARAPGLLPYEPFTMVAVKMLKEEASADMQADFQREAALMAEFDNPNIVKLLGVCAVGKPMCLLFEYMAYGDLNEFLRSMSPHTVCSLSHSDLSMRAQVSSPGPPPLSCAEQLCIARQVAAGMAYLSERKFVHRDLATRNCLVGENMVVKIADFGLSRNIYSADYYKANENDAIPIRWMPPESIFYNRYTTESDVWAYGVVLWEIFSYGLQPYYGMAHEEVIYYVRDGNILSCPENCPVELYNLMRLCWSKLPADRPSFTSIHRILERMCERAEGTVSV

[6] = target: T6, 382 unique human kinases (Homo sapiens, UniProt Q9NZJ5); settings: EIF2AK3, 10 uM; for remaining activity at 10 µM: read-out: % Enzyme Activity (relative to DMSO controls)
T6 construct: purchased Reaction Biology (HotSpot contract assay)
T6 sequence (Q9NZJ5 30-1116): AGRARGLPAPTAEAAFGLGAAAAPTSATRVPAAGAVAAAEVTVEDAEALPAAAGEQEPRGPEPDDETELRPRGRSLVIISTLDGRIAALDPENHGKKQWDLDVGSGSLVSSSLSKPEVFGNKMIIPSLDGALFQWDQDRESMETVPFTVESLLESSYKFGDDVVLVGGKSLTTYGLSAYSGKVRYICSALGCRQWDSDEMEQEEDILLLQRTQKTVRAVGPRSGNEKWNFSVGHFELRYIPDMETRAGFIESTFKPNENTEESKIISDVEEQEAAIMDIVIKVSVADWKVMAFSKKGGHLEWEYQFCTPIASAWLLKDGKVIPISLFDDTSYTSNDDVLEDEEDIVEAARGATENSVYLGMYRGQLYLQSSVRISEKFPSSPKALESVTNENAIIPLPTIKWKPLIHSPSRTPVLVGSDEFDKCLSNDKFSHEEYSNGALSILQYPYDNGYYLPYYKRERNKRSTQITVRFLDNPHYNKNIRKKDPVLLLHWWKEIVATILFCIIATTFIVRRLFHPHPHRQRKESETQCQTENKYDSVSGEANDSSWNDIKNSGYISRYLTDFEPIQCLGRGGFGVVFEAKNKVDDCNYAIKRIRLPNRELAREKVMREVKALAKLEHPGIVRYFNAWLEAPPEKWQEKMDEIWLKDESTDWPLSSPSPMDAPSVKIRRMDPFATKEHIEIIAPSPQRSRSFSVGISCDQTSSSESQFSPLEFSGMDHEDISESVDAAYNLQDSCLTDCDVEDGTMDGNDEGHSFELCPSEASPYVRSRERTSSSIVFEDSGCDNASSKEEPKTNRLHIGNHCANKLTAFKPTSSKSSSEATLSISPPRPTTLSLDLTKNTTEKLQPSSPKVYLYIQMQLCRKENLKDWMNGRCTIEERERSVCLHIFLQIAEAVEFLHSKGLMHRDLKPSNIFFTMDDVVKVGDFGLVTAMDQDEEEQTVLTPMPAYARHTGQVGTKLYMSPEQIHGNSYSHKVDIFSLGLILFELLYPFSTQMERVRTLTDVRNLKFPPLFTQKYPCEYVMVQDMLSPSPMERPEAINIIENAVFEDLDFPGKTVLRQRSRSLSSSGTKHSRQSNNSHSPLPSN

Row | SMILES | remaining activity at 10 µM [1] [%] | remaining activity at 10 µM [2] [%] | remaining activity at 10 µM [3] [%] | remaining activity at 10 µM [4] [%] | remaining activity at 10 µM [5] [%] | remaining activity at 10 µM [6] [%] | % Enzyme Activity (relative to DMSO controls) [1] [%] | % Enzyme Activity (relative to DMSO controls) [2] [%] | % Enzyme Activity (relative to DMSO controls) [3] [%] | % Enzyme Activity (relative to DMSO controls) [4] [%] | % Enzyme Activity (relative to DMSO controls) [5] [%] | % Enzyme Activity (relative to DMSO controls) [6] [%]
1 | CC(C)c1cc(-c2n[nH]c(=O)n2-c2ccc3c(ccn3C)c2)c(O)cc1O [Ganetespib (STA9090)] | 82.8 | 86.5 | 133 | 86.8 | – | – | – | – | – | – | – | –
2 | CC(C)c1cc(-c2n[nH]c(=O)n2-c2ccc3c(ccn3C)c2)c(O)cc1O [Ganetespib] | – | – | – | – | 51.1 | 101 | – | – | – | – | – | –
3 | CCNC(=O)c1noc(-c2cc(C(C)C)c(O)cc2O)c1-c1ccc(CN2CCOCC2)cc1 [Luminespib (AUY-922)] | 83.9 | 122 | 104 | 97.8 | – | – | 83.62 | 122.22 | 102.12 | 93.84 | – | –
4 | CCNC(=O)c1noc(-c2cc(C(C)C)c(O)cc2O)c1-c1ccc(CN2CCOCC2)cc1 [Luminespib] | – | – | – | – | 90.6 | 104 | – | – | – | – | 89.25 | 103.58
